Data taken from article PMC5864073, “A D-enantiomer of the antimicrobial peptide GL13K evades antimicrobial resistance in the Gram positive bacteria Enterococcus faecalis and Streptococcus gordonii” (PLoS ONE, 2018).
Where a SMILES comes first, the peptide text is derived from it. [ ]: non-standard residue; d: D form.

Columns and labels:
E. faecalis OG1RF [1] = experiment: Bactericidal activity in PBS+0.05% Triton X-100; format: cell-based, Enterococcus faecalis; details: PBS+0.05% Triton X-100, peptide 100 mg/L, 2 h, CFU on THA, N = 5
Method: (§1) The lysis assay followed an established protocol for bacterial autolysis with minor modifications. Exponentially growing cells were washed twice in PBS then washed once in ice-cold dH2O. The bacteria were incubated in PBS with 0.05% Triton X-100 and peptides at a concentration of 100 mg/L. OD600 was monitored spectrophotometrically for 180 min. In some experiments, the cells were incubated with the peptides for 2h in PBS+0.05% Triton X-100 and then cultured on THA to enumerate surviving cells.
(§2) Fig 2 Effect of GL13K peptides on Triton X-100 induced autolysis. E. faecalis OG1RF (A) or the autolysis-deficient strain TX5128 (B) were incubated in PBS with 0.05% Triton X-100 in the absence of peptide (control) or in the presence of 100 mg/L of L-GL13K or D-GL13K (D). The OD600 was recorded for 180 min and expressed as a percent of starting OD600 of the control sample. (C): Bactericidal activity of GL13K peptides in PBS+0.05% Triton X-100. E. faecalis OG1RF were incubated with 0.05% Triton X-100 in the absence of peptide (Ctrl) or with L-GL13K or D-GL13K for 2h. Surviving CFU were enumerated and are shown as mean ± SEM (N = 5). Peptide treated samples were compared to the untreated control by Kruskal-Wallis test with Dunn’s multiple comparison post-test. n.s., not significant.

E. faecalis OG1RF [2] = experiment: Triton X-100 induced bacterial autolysis assay; format: cell-based, Enterococcus faecalis; details: PBS with 0.05% Triton X-100, peptide 100 mg/L, OD600 for 180 min
Method: as §1, §2

wild-type E. faecalis = experiment: Bactericidal activity in sodium phosphate buffer; format: cell-based, Enterococcus faecalis; details: 10^8 CFU/ml wild-type E. faecalis, no energy source, 10 mM sodium-phosphate pH 7.4, 2 h, 37°C, spotted on THA; D N = 4, L N = 3
Method: These assays were performed according to our established protocol with some modifications. Cells were washed three times in 0.9% NaCl and five μl of washed cells (10^9 CFU/ml) were added to the peptides diluted 2-fold (128 to 4 mg/L) in 45 μl of 10 mM sodium-phosphate, pH 7.4. The samples were incubated at 37°C for 2 h and 10 μl were then spotted on THA plates to assess bactericidal activity.

[3] = test system: conditioned supernatant of protease-deficient E. faecalis (TX5128); experiment: Proteolysis of peptide by conditioned culture supernatant (P. aeruginosa Xen41 bioassay); format: in vitro ADME, Enterococcus faecalis; details: conditioned sterile-filtered supernatant of protease-deficient E. faecalis TX5128, peptide 32 mg/L, 2 h, 37°C; bioluminescence read-out after 15 min; three independent experiments
Method: (§3) To test proteolytic processing of GL13K peptides, overnight bacterial cultures were centrifuged (5 min, 13,000 g) and the conditioned supernatants were sterile-filtered (0.22 μm, Corning). Filtered supernatant (16.8 μl) was incubated with 3.2 μl (3.2 μg) peptide at 37°C for 2 h to allow bacterial proteases in the supernatant to process the peptide. To determine residual peptide activity, 70 μl of 10 mM sodium phosphate buffer, pH 7.4 was added to each sample and then supplemented with 10 μl (10^8 CFU) of bioluminescent Pseudomonas aeruginosa Xen41 (Caliper Lifesciences; now Perkin Elmer, MA) that had been washed three times in 0.9% NaCl (final maximal peptide concentration 32 mg/L). Viability of the indicator bacteria was determined after 15 min incubation at 37°C by determining bioluminescence in a Synergy HT plate reader. The luminescence detected in the absence of added peptide was used as a measure of 100% proteolysis.
(§4) Fig 1 Relative proteolysis of GL13K peptides. (A): Wild-type (OG1RF) or the protease-negative strain (TX5128) of E. faecalis was cultured on THA containing 3% gelatin. Gelatinase activity was visualized as a turbid halo around the bacterial colonies; (B): L-GL13K (L) or D-GL13K (D) (32 mg/L) was incubated with conditioned supernatant of wild-type (OG1RF) or the protease-negative strain (TX5128) of E. faecalis for 2 h. Residual peptide activity was determined by adding bioluminescent P. aeruginosa Xen41 to the mixture. Bioluminescence from surviving bacteria was used as a measure of proteolytic degradation of each peptide and expressed relative to bacterial bioluminescence in the absence of peptides (equivalent to 100% proteolysis). Data are shown as mean ± SEM from three independent experiments and were analyzed by paired t-test for each strain. n.s., not significant.

[4] = test system: wild-type E. faecalis (OG1RF); experiment: Selection for peptide resistance, serial MIC assays; format: cell-based, Enterococcus faecalis; details: serial passage at 0.5 x MIC
Method: (§5) To investigate potential resistance development against the GL13K peptides, dilutions of the peptides were prepared and incubated as described for the MIC assay. The next day (day 0), the MIC was recorded and the culture in the well with the highest peptide concentration that allowed growth (i.e 0.5 x MIC) was diluted 1:100 and used as an inoculum for the next round of selection in a new MIC assay and so forth until a stable plateau of resistance was reached.
(§6) Fig 4 Development of resistance in E. faecalis. MICs for L-GL13K (circles) and D-GL13K (squares) were recorded on consecutive days using E. faecalis OG1RF (wild-type) (open symbols) (D-enantiomer only) and dltA (closed symbols). The MIC for each day is expressed relative to the starting MIC (day 0). Data from three experiments are shown as mean ± SEM.

[5] = test system: E. faecalis dltA mutant (TX5427); experiment: as above; format: cell-based, Enterococcus faecalis; details: serial passage at 0.5 x MIC, L-GL13K after two rounds, D-GL13K after seven rounds, three experiments
Method: as §5, §6

[6] = test system: E. faecalis OG1RF dltA (TX5427) biofilm; experiment: Biofilm assay (Calgary device); format: cell-based, Enterococcus faecalis; details: 24 h biofilm of OG1RF dltA, peptide 100 mg/L, 4 h, CFU relative to the wild-type biofilm
Method: (§7) E. faecalis OG1RF, TX5427 or V583 were cultured in a Calgary device for 24h in THB. Biofilms were treated with peptides (100 mg/L) for 4h and surviving cells were sonicated and plated on THA for enumeration of CFUs.
(§8) Fig 3 Effect of GL13K peptides on biofilms of E. faecalis. Twenty-four hour biofilms of OG1RF; OG1RF dltA or V583 were treated with 100 mg/L of L-GL13K (L) or D-GL13K (D). Surviving CFU were enumerated from each peg and expressed relative to the mean CFU recovered from pegs of wild-type cells treated with buffer alone (OG1RF—C). Data from 2–4 experiments are expressed as mean ± SEM (N = 6–13). V583 was only treated with D-GL13K.

[7] = test system: E. faecalis OG1RF biofilm; experiment: Biofilm assay (Calgary device); format: cell-based, Enterococcus faecalis; details: 24 h biofilm of OG1RF, peptide 100 mg/L, 4 h, CFU enumerated
Method: as §7, §8

[8] = test system: vancomycin-resistant E. faecalis V583 biofilm; experiment: Biofilm assay (Calgary device); format: cell-based, Enterococcus faecalis; details: 24 h biofilm of V583, peptide 100 mg/L, 4 h, CFU enumerated
Method: as §7, §8

[9] = test system: S. gordonii DL1 (wild-type); experiment: Selection for peptide resistance, serial MIC assays; format: cell-based, Streptococcus gordonii; details: repeated treatment with sub-inhibitory concentrations, 2–3 experiments
Method: as §5
as §6, with “6” for “4”, “S. gordonii.” for “E. faecalis.”, “S. gordonii DL1” for “E. faecalis OG1RF”, “2–3” for “three”, “range.” for “SEM.”

S. gordonii dltA mutant = experiment: as above; format: cell-based, Streptococcus gordonii; details: repeated treatment with sub-inhibitory concentrations, 2–3 experiments
Method: as §5
as §6, with “6” for “4”, “S. gordonii.” for “E. faecalis.”, “S. gordonii DL1” for “E. faecalis OG1RF”, “2–3” for “three”, “range.” for “SEM.”

E. faecalis OG1RF ebsG = experiment: Minimal inhibitory concentration, broth dilution; format: cell-based, Enterococcus faecalis; set-up: key: >: Mean MIC is above the tested concentration range (this value was set at 200 mg/L for data analysis); details: THB, 20 h, 37°C, symbol
Method: (§9) The minimal inhibitory concentration (MIC) assays were performed essentially as described for cationic AMPs, but using streptococcal growth-friendly THB without the addition of blood or serum components. A working stock of 1-5x10^5 CFU/ml in 90 or 100 μl THB was added to 10 or 20 μl of a 2-fold serial peptide dilution in 0.01% acetic acid and incubated for 20 h at 37°C in 96-well polypropylene plates. The OD at 600 nm (OD600) was determined in a Synergy HT plate reader (BioTek, Winooski, VT). Control wells for growth without peptide and growth medium without bacteria were included. Bacterial cell numbers in the inoculum were verified by colony count.

[10] = test system: E. faecalis TX5128 (gelE-, SprE-); experiment: Minimal inhibitory concentration, broth dilution; format: cell-based, Enterococcus faecalis; set-up: key: >: Mean MIC is above the tested concentration range (this value was set at 200 mg/L for data analysis); details: THB, 20 h, 37°C
Method: as §9

[11] = test system: vancomycin-resistant E. faecalis V583; experiment: Minimal inhibitory concentration, broth dilution; format: cell-based, Enterococcus faecalis; set-up: key: >: Mean MIC is above the tested concentration range (this value was set at 200 mg/L for data analysis); details: THB, 20 h, 37°C, symbol
Method: as §9

[12] = test system: E. faecalis OG1RF::pMSP7551; experiment: Minimal inhibitory concentration, broth dilution; format: cell-based, Enterococcus faecalis; set-up: key: >: Mean MIC is above the tested concentration range (this value was set at 200 mg/L for data analysis); details: E. faecalis OG1RF::pMSP7551 (un-induced); THB, 20 h, 37°C; symbol
Method: as §9

[13] = test system: E. faecalis OG1RF::pMSP7551+nisin; experiment: Minimal inhibitory concentration, broth dilution; format: cell-based, Enterococcus faecalis; set-up: key: >: Mean MIC is above the tested concentration range (this value was set at 200 mg/L for data analysis); details: E. faecalis OG1RF::pMSP7551+nisin (induced); THB, 20 h, 37°C; symbol
Method: as §9

[14] = test system: S. gordonii DL1 (wild-type); experiment: Minimal inhibitory concentration, broth dilution; format: cell-based, Streptococcus gordonii; set-up: key: >: Mean MIC is above the tested concentration range (this value was set at 200 mg/L for data analysis); details: THB, 20 h, 37°C
Method: as §9

[15] = test system: conditioned supernatant of wild-type E. faecalis (OG1RF); experiment: Proteolysis of peptide by conditioned culture supernatant (P. aeruginosa Xen41 bioassay); format: in vitro ADME, Enterococcus faecalis; details: conditioned sterile-filtered supernatant of E. faecalis OG1RF, peptide 32 mg/L, 2 h, 37°C; bioluminescence read-out after 15 min; three independent experiments
Method: as §3, §4

[16] = test system: E. faecalis OG1RF dltA (TX5427); experiment: Minimal inhibitory concentration, broth dilution; format: cell-based, Enterococcus faecalis; details: THB, 20 h, 37°C, OD600, mean ± SEM
Method: as §9

[17] = test system: E. faecalis OG1RF (wild-type); experiment: Minimal inhibitory concentration, broth dilution; format: cell-based, Enterococcus faecalis; set-up: key to MIC (mg/L): >: Mean MIC is above the tested concentration range (this value was set at 200 mg/L for data analysis); details: THB, 20 h, 37°C
Method: as §9

S. gordonii DL1 dltA = experiment: Minimal inhibitory concentration, broth dilution; format: cell-based, Streptococcus gordonii; details: THB, 20 h, 37°C, OD600, mean ± SEM
Method: as §9

S. gordonii DL1 atlS = experiment: Minimal inhibitory concentration, broth dilution; format: cell-based, Streptococcus gordonii; details: THB, 20 h, 37°C, OD600, mean ± SEM
Method: as §9

Structure (SMILES)	Reduction of viable cells under autolysis conditions (E. faecalis OG1RF [1])	Effect on Triton X-100 induced autolysis (OD600) (E. faecalis OG1RF [2])	Peptide concentration required for complete killing (wild-type E. faecalis)	Proteolysis of peptide (loss of activity against bioluminescent P. aeruginosa Xen41) [3]	Increase of MIC relative to starting MIC (day 0) [5]	Reduction of viable biofilm CFU [6]	Reduction of viable biofilm CFU [7]	Increase of MIC relative to starting MIC (day 0) [9]	Increase of MIC relative to starting MIC (day 0) (S. gordonii dltA mutant)	also measured
CC[C@@H](C)[C@@H](NC(=O)[C@@H](CCCCN)NC(=O)CN)C(=O)N[C@@H](C(=O)N[C@H](CCCCN)C(=O)N[C@H](CC(C)C)C(=O)N[C@H](CCCCN)C(=O)N[C@H](C)C(=O)N[C@H](CO)C(=O)N[C@H](CC(C)C)C(=O)N[C@H](CCCCN)C(=O)N[C@H](CC(C)C)C(=O)N[C@H](CC(C)C)C(N)=O)[C@H](C)CC [D-GL13K] (H-G[dK][dI][dI][dK][dL][dK][dA][dS][dL][dK][dL][dL]-NH2; N-terminus and C-terminus assumed)	3 log10	no autolysis was seen	15 ± 10 mg/L	did not show significant proteolysis	2 fold	highly effective	3 log10	little change of the MIC	little change of the MIC	Increase of MIC relative to starting MIC (day 0) [4]: did not substantially increase the MIC; Reduction of viable biofilm CFU [8]: 3 log10
CC[C@H](C)[C@H](NC(=O)[C@H](CCCCN)NC(=O)CN)C(=O)N[C@H](C(=O)N[C@@H](CCCCN)C(=O)N[C@@H](CC(C)C)C(=O)N[C@@H](CCCCN)C(=O)N[C@@H](C)C(=O)N[C@@H](CO)C(=O)N[C@@H](CC(C)C)C(=O)N[C@@H](CCCCN)C(=O)N[C@@H](CC(C)C)C(=O)N[C@@H](CC(C)C)C(N)=O)[C@@H](C)CC [L-GL13K, Gly-Lys-Ile-Ile-Lys-Leu-Lys-Ala-Ser-Leu-Lys-Leu-Leu-NH2] (H-GKIIKLKASLKLL-NH2; N-terminus assumed)	small, yet non-significant, reduction of cell numbers	somewhat reduced autolysis	48 ± 23 mg/L	did not show significant proteolysis	8 fold	three orders of magnitude	ineffective	6 fold	16 fold	MIC (mg/L) (E. faecalis OG1RF ebsG): >; MIC (mg/L) ([10]; OD600, mean ± SEM): did not inhibit growth; MIC (mg/L) ([10]; symbol): >; MIC (mg/L) [11]: >; MIC (mg/L) [12]: >; MIC (mg/L) [13]: >; MIC (mg/L) ([14]; OD600, mean ± SEM): resistant; MIC (mg/L) ([14]; symbol): >; Proteolysis of peptide (loss of activity against bioluminescent P. aeruginosa Xen41) [15]: almost complete proteolysis; MIC [16]: 70 ± 17 mg/L; MIC ([17]; 1-5x10^5 CFU/ml, OD600, mean ± SEM): > 512 mg/L; MIC (mg/L) ([17]; OD600, symbol): >; MIC (S. gordonii DL1 dltA): 11 ± 3 mg/L; MIC (S. gordonii DL1 atlS): 63 ± 8 mg/L
